In the first test the target is T1, Recombinant human cathepsin S (CatS) (Homo sapiens, UniProt P25774).
T1 construct: made in house
T1 sequence (P25774 115-331): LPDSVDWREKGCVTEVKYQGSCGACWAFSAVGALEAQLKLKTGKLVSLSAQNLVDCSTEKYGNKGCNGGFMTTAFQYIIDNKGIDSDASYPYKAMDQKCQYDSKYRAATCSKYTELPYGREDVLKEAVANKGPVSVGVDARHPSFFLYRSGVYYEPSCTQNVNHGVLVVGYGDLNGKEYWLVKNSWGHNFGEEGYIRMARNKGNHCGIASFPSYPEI
In words: Recombinant human cathepsin S (CatS) fluorogenic substrate inhibition assay. In kind it is biochemical.
Conditions: not given
As to the method: Recombinant human cathepsin S (CatS) was expressed in the baculovirus system and purified in one step with a thiopropyl-sepharose column. […] The assay is run in 150 mM sodium acetate pH 5.0 containing 1.5 mM DTT and 150 mM NaCl. […] Measurements are taken every min for 20 min. The rate is calculated from the slope of the increase in fluorescence and the percent inhibition is calculated from this.
Broadly, the IC50 is the concentration that gives 50% inhibition. `CS(=O)(=O)N1CCc2c(c(-c3ccc(C(F)(F)F)c(CNC(=O)Oc4ccc(F)cc4)c3)nn2CC(O)CN2CCCC2)C1` (centres unmarked) [Example 213, {5-[1-(2-Hydroxy-3-pyrrolidin-1-yl-propyl)-5-methanesulfonyl-4,5,6,7-tetrahydro-1H-pyrazolo[4,3-c]pyridin-3-yl]-2-trifluoromethyl-benzyl}-carbamic acid 4-fluoro-phenyl ester]: the IC50 stood at 560 nM.

The test is the same for the next values; noted with them: average of results obtained; substrate Z-Valine-Valine-Arginine-AMC 10 μM, pH 5.0; read-out: CatS IC50.
Regarding `CS(=O)(=O)N1CCc2c(c(-c3ccc(Cl)c(CNC(=O)c4ccc(F)cc4)c3)nn2CC(O)CN2CCC(N)CC2)C1` (centres unmarked) [Example 83, N-(5-{1-[3-(4-Amino-piperidin-1-yl)-2-hydroxy-propyl]-5-methanesulfonyl-4,5,6,7-tetrahydro-1H-pyrazolo[4,3-c]pyridin-3-yl}-2-chloro-benzyl)-4-fluoro-benzamide], the IC50 is 270 nM.

Turning to `CS(=O)(=O)N1CCc2c(c(-c3ccc(Cl)c(CNC(=O)c4cc5ccccc5s4)c3)nn2CCCN2CCCC2)C1` [Example 164, Benzo[b]thiophene-2-carboxylic acid 2-chloro-5-[5-methanesulfonyl-1-(3-pyrrolidin-1-yl-propyl)-4,5,6,7-tetrahydro-1H-pyrazolo[4,3-c]pyridin-3-yl]-benzylamide], the 50% inhibitory concentration (IC50) came out at 410 nM. For the compound `CS(=O)(=O)N1CCc2c(c(-c3ccc(C(F)(F)F)c(CNC(=O)C4CCCCCC4)c3)nn2CCCN2CCC3(CCNC3=O)CC2)C1` [Example 158, Cycloheptanecarboxylic acid 5-{5-methanesulfonyl-1-[3-(1-oxo-2,8-diaza-spiro[4.5]dec-8-yl)-propyl]-4,5,6,7-tetrahydro-1H-pyrazolo[4,3-c]pyridin-3-yl}-2-trifluoromethyl-benzylamide], the IC50 came to 280 nM. On the same count and under the same terms, then `CC(C)=CC(=O)NCc1cc(-c2nn(CC(O)CN3CCC(O)C3)c3c2CN(S(C)(=O)=O)CC3)ccc1C(F)(F)F` (centres unmarked) [Example 32, 3-Methyl-but-2-enoic acid 5-{1-[2-hydroxy-3-(3-hydroxy-pyrrolidin-1-yl)-propyl]-5-methanesulfonyl-4,5,6,7-tetrahydro-1H-pyrazolo[4,3-c]pyridin-3-yl}-2-trifluoromethyl-benzylamide], with 270 nM. Regarding `CS(=O)(=O)N1CCc2c(c(-c3ccc(C(F)(F)F)c(CNC(=O)c4cc(Cl)cc(Cl)c4)c3)nn2CC(O)CN2CCCC2)C1` (centres unmarked) [Example 218, 3,5-Dichloro-N-{5-[1-(2-hydroxy-3-pyrrolidin-1-yl-propyl)-5-methanesulfonyl-4,5,6,7-tetrahydro-1H-pyrazolo[4,3-c]pyridin-3-yl]-2-trifluoromethyl-benzyl}-benzamide], the IC50 came to 610 nM.

Turning to `CC1(C)CCN(CCCn2nc(-c3ccc(C(F)(F)F)c(CNCc4ccc(F)cc4)c3)c3c2CCN(C(=O)CO)C3)CC1` [Example 297, 1-(1-[3-(4,4-Dimethyl-piperidin-1-yl)-propyl]-3-{3-[(4-fluoro-benzylamino)-methyl]-4-trifluoromethyl-phenyl}-1,4,6,7-tetrahydro-pyrazolo[4,3-c]pyridin-5-yl)-2-hydroxy-ethanone], the IC50 amounted to 180 nM. The same measure, in the same setting: the same measure for `CC(C)=CC(=O)NCc1cc(-c2nn(CC(O)CN3CCC(N(C)C)CC3)c3c2CN(S(C)(=O)=O)CC3)ccc1C(F)(F)F` (centres unmarked) [Example 34, 3-Methyl-but-2-enoic acid 5-{1-[3-(4-dimethylamino-piperidin-1-yl)-2-hydroxy-propyl]-5-methanesulfonyl-4,5,6,7-tetrahydro-1H-pyrazolo[4,3-c]pyridin-3-yl}-2-trifluoromethyl-benzylamide]: 260 nM; for `CC(C)(C)OC(=O)NC1CCN(CC(O)Cn2nc(-c3ccc(C(F)(F)F)c(CNC(=O)c4ccc(F)cc4)c3)c3c2CCN(S(C)(=O)=O)C3)CC1` (centres unmarked) [Example 102]: 30 nM. The same measure, in the same setting: then `CC(C)CC(=O)NCc1cc(-c2nn(CC(O)CN3CCC(NS(C)(=O)=O)CC3)c3c2CN(S(C)(=O)=O)CC3)ccc1C(F)(F)F` (centres unmarked) [Example 255, N-(5-{1-[2-Hydroxy-3-(4-methanesulfonylamino-piperidin-1-yl)-propyl]-5-methanesulfonyl-4,5,6,7-tetrahydro-1H-pyrazolo[4,3-c]pyridin-3-yl}-2-trifluoromethyl-benzyl)-3-methyl-butyramide], with 160 nM; and `O=C(NCc1cc(-c2nn(CC(O)CN3CCC4(CCNC4=O)CC3)c3c2CNCC3)ccc1C(F)(F)F)c1ccc(F)cc1` (centres unmarked) [Example 238, 4-Fluoro-N-(5-{1-[2-hydroxy-3-(1-oxo-2,8-diaza-spiro[4.5]dec-8-yl)-propyl]-4,5,6,7-tetrahydro-1H-pyrazolo[4,3-c]pyridin-3-yl}-2-trifluoromethyl-benzyl)-benzamide], with 940 nM; and `CC(=O)Nc1cccc(C(=O)NCc2cc(-c3nn(CC(O)CN4CCCC4)c4c3CN(S(C)(=O)=O)CC4)ccc2C(F)(F)F)c1` (centres unmarked) [Example 59, 3-Acetylamino-N-{5-[1-(2-hydroxy-3-pyrrolidin-1-yl-propyl)-5-methanesulfonyl-4,5,6,7-tetrahydro-1H-pyrazolo[4,3-c]pyridin-3-yl]-2-trifluoromethyl-benzyl}-benzamide], with 500 nM. Same read-out and setting: the same measure for `CS(=O)(=O)N1CCc2c(c(-c3ccc(C(F)(F)F)c(CNC(=O)c4ccc(F)cc4)c3)nn2CC(O)CN2CCCCC2)C1` (centres unmarked) [Example 24, 4-Fluoro-N-{5-[1-(2-hydroxy-3-piperidin-1-yl-propyl)-5-methanesulfonyl-4,5,6,7-tetrahydro-1H-pyrazolo[4,3-c]pyridin-3-yl]-2-trifluoromethyl-benzyl}-benzamide]: 250 nM. With `CS(=O)(=O)N1CCc2c(c(-c3ccc(C(F)(F)F)c(CNS(=O)(=O)Cc4ccccc4)c3)nn2CCCN2CCC3(CCNC3=O)CC2)C1` [Example 67, N-(5-{5-Methanesulfonyl-1-[3-(1-oxo-2,8-diaza-spiro[4.5]dec-8-yl)-propyl]-4,5,6,7-tetrahydro-1H-pyrazolo[4,3-c]pyridin-3-yl}-2-trifluoromethyl-benzyl)-C-phenyl-methanesulfonamide], the IC50 came out at 2200 nM. On to `CS(=O)(=O)N1CCc2c(c(-c3ccc(Cl)c(CC(=O)Nc4ccccc4)c3)nn2CCCN2CCOCC2)C1` [Example 291, 2-{2-Chloro-5-[5-methanesulfonyl-1-(3-morpholin-4-yl-propyl)-4,5,6,7-tetrahydro-1H-pyrazolo[4,3-c]pyridin-3-yl]-phenyl}-N-phenyl-acetamide], for which the IC50 was found to be 2850 nM. On the same count and under the same terms, the same measure for `Cc1ccc(C(=O)NCc2cc(-c3nn(CCCN4CCCC4)c4c3CN(S(C)(=O)=O)CC4)ccc2Cl)cc1` [Example 88, N-{2-Chloro-5-[5-methanesulfonyl-1-(3-pyrrolidin-1-yl-propyl)-4,5,6,7-tetrahydro-1H-pyrazolo[4,3-c]pyridin-3-yl]-benzyl}-4-methyl-benzamide]: 740 nM; for `CS(=O)(=O)N1CCc2c(c(-c3ccc(Cl)c(COC(=O)c4ccccc4)c3)nn2CCCN2CCCC2)C1` [Example 70, Benzoic acid 2-chloro-5-[5-methanesulfonyl-1-(3-pyrrolidin-1-yl-propyl)-4,5,6,7-tetrahydro-1H-pyrazolo[4,3-c]pyridin-3-yl]-benzyl ester]: 1850 nM. In the case of `CNC(=O)NC1CCN(CC(O)Cn2nc(-c3ccc(Cl)c(CNC(=O)c4ccc(F)cc4)c3)c3c2CCN(S(C)(=O)=O)C3)CC1` (centres unmarked) [Example 77, N-[2-Chloro-5-(1-{2-hydroxy-3-[4-(3-methyl-ureido)-piperidin-1-yl]-propyl}-5-methanesulfonyl-4,5,6,7-tetrahydro-1H-pyrazolo[4,3-c]pyridin-3-yl)-benzyl]-4-fluoro-benzamide], the IC50 is 30 nM. In the case of `CC(C)=CC(=O)NCc1cc(-c2nn(CC(O)CN3CCC(O)CC3)c3c2CN(S(C)(=O)=O)CC3)ccc1C(F)(F)F` (centres unmarked) [Example 154, 3-Methyl-but-2-enoic acid 5-{1-[2-hydroxy-3-(4-hydroxy-piperidin-1-yl)-propyl]-5-methanesulfonyl-4,5,6,7-tetrahydro-1H-pyrazolo[4,3-c]pyridin-3-yl}-2-trifluoromethyl-benzylamide], the IC50 was 90 nM.

For the compound `CS(=O)(=O)N1CCc2c(c(-c3ccc(Cl)c(CCC(=O)Nc4ccc(F)cc4)c3)nn2CCCN2CCOCC2)C1` [Example 293, 3-{2-Chloro-5-[5-methanesulfonyl-1-(3-morpholin-4-yl-propyl)-4,5,6,7-tetrahydro-1H-pyrazolo[4,3-c]pyridin-3-yl]-phenyl}-N-(4-fluoro-phenyl)-propionamide], the IC50 was found to be 3000 nM.

Take `CC(C)N1CCN(CC(O)Cn2nc(-c3ccc(C(F)(F)F)c(CNC(=O)c4ccc(F)cc4)c3)c3c2CCN(S(C)(=O)=O)C3)CC1` (centres unmarked) [Example 20, 4-Fluoro-N-(5-{1-[2-hydroxy-3-(4-isopropyl-piperazin-1-yl)-propyl]-5-methanesulfonyl-4,5,6,7-tetrahydro-1H-pyrazolo[4,3-c]pyridin-3-yl}-2-trifluoromethyl-benzyl)-benzamide]: the IC50 amounted to 400 nM.

As to `CC(=O)N1CCN(CC(O)Cn2nc(-c3ccc(C(F)(F)F)c(CNC(=O)c4ccc(F)cc4)c3)c3c2CCN(S(C)(=O)=O)C3)CC1` (centres unmarked) [Example 21, N-(5-{1-[3-(4-Acetyl-piperazin-1-yl)-2-hydroxy-propyl]-5-methanesulfonyl-4,5,6,7-tetrahydro-1H-pyrazolo[4,3-c]pyridin-3-yl}-2-trifluoromethyl-benzyl)-4-fluoro-benzamide], the IC50 came out at 300 nM. Same read-out and setting: then `CS(=O)(=O)N1CCc2c(c(-c3ccc(C(F)(F)F)c(CNC(=O)c4ccc(F)c(Cl)c4)c3)nn2CC(O)CN2CCCC2)C1` (centres unmarked) [Example 61, 3-Chloro-4-fluoro-N-{5-[1-(2-hydroxy-3-pyrrolidin-1-yl-propyl)-5-methanesulfonyl-4,5,6,7-tetrahydro-1H-pyrazolo[4,3-c]pyridin-3-yl]-2-trifluoromethyl-benzyl}-benzamide], with 190 nM.

The values above are taken from patent US20090118274A1, “MONOCYCLIC AMINOPROPYL TETRAHYDRO-PYRAZOLO-PYRIDINE MODULATORS OF CATHEPSIN S” (priority 2007, published 2009).
